Experimental data published in patent publication US20250289785A1, “INDOLE DERIVATIVE, METHOD FOR PREPARING SAME, AND USE THEREOF” (MITOIMMUNE THERAPEUTICS INC., priority 2021, published 2025).

Key:
[1] = system: H9C2 cells; test: Cell death protective effect in cardiac myocytes against Erastin, glutamate and RSL3 (LDH); assay type: cell-based, white mouse; settings: 24 h
Method: (§1) In order to identify the protective effect on cardiac cells, H9C2 cells were divided into 96-well plates by 1×10^4 and cultured for 18 to 24 hours. The compounds of Examples were diluted to final concentrations of 0.1 and 1.0 μM, treated in each well, and incubated for 15 to 20 minutes. Erastin, glutamate, and RSL3 were treated to have final concentrations of 1 μM, 25 mM, and 0.5 μM, respectively, and cultured for 24 hours. In order to identify the protective effect of each compound, the degree of LDH extracellular secretion was measured using cytotoxicity LDH assay kit [Dojindo; CK12]. Briefly, at the time when the treatment of the cells with Erastin, glutamate, and RSL3 for 24 hours is completed, the supernatants containing the cells are taken by 70 μL and transferred to a new 96-well plate. The assay buffer included in the kit is added in an amount of 70 μL/well (the same amount as the sample) thereto, and then the plate is wrapped with a foil and the reaction is performed at room temperature for 15 minutes.

[2] = system: H9C2 cells; test: Cell protection effect against t-BHP in heart cells (LDH release); assay type: cell-based; settings: H9C2, t-BHP 40 μM, 2 hours
Outline: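 H9C2 cardiomyocytes pre-treated 15–20 min with compound (final 0.03–30 μM, 3-fold series), then challenged with 40 μM t-BHP for 2 h. LDH released into supernatant measured colorimetrically (30 min, room temperature, A490); EC50 calculated from protection.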

[3] = system: NIH/3T3 cells; test: Cell death protective effect in fibroblasts against Erastin, glutamate and RSL3 (LDH); assay type: cell-based, mouse; settings: 24 h
Method: as §1, with “on fibroblasts, NIH/3T3” for “on cardiac cells, H9C2”, “by 8×10^3” for “by 1×10^4”, “and 1” for “and 1.0”, “of 3” for “of 1”, “μM, 30” for “μM, 25”, “and 3” for “and 0.5”

[4] = system: PC-12 cells; test: Cell death protective effect in adrenal cells against Erastin, glutamate and RSL3 (LDH); assay type: cell-based, rat; settings: 24 h
Method: as §1, with “adrenal” for “cardiac”, “PC-12” for “H9C2”, “The compounds of Examples were diluted to final concentrations of 0.1 and 1.0 μM, treated in each well, and incubated for 15 to 20 minutes.” left out, “10” for “25”, “0.3” for “0.5”

[5] = system: ARPE-19 cells; test: Cell death protective effect in retinal epithelial cells against Erastin and RSL3 (LDH); assay type: cell-based, human; settings: 24 h
Method: In order to identify the protective effect on retinal epithelial cells, ARPE-19 cells were divided into 96-well plates by 1×10^4 and cultured for 18 to 24 hours. The compounds of Examples were diluted to final concentrations of 0.03 and 0.3 μM, treated in each well, and incubated for 20 minutes. Erastin, and RSL3 were treated to have final concentrations of 10 μM, and 0.3 μM, respectively, and cultured for 24 hours. In order to identify the protective effect of each compound, the degree of LDH extracellular secretion was measured using cytotoxicity LDH assay kit [Dojindo; CK12]. Briefly, at the time when the treatment of the cells with Erastin, and RSL3 for 24 hours is completed, the supernatants containing the cells are taken by 70 μL and transferred to a new 96-well plate. The assay buffer included in the kit is added in an amount of 70 μL/well (the same amount as the sample) thereto, and then the plate is wrapped with a foil and the reaction is performed at room temperature for 15 minutes.

[6] = H9C2, Erastin, 1 μM, compound 0.1 μM
[7] = H9C2, Erastin, 1 μM, compound 1.0 μM
[8] = H9C2, Glutamate, 25 mM, compound 0.1 μM
[9] = H9C2, Glutamate, 25 mM, compound 1.0 μM
[10] = H9C2, RSL3, 0.5 μM, compound 0.1 μM
[11] = H9C2, RSL3, 0.5 μM, compound 1.0 μM
[12] = NIH/3T3, Erastin, 3 μM, compound 0.1 μM
[13] = NIH/3T3, Erastin, 3 μM, compound 1.0 μM
[14] = NIH/3T3, Glutamate, 30 mM, compound 0.1 μM
[15] = NIH/3T3, Glutamate, 30 mM, compound 1.0 μM
[16] = NIH/3T3, RSL3, 3 μM, compound 0.1 μM
[17] = NIH/3T3, RSL3, 3 μM, compound 1.0 μM
[18] = PC-12, Erastin, 1 μM, compound 0.1 μM
[19] = PC-12, Erastin, 1 μM, compound 1.0 μM
[20] = PC-12, Glutamate, 10 mM, compound 0.1 μM
[21] = PC-12, Glutamate, 10 mM, compound 1.0 μM
[22] = PC-12, RSL3, 0.3 μM, compound 0.1 μM
[23] = PC-12, RSL3, 0.3 μM, compound 1.0 μM
[24] = ARPE-19, Erastin, 10 μM, compound 0.03 μM
[25] = ARPE-19, Erastin, 10 μM, compound 0.3 μM
[26] = ARPE-19, RSL3, 0.3 μM, compound 0.03 μM (first RSL3 column)
[27] = ARPE-19, RSL3, 0.3 μM, compound 0.03 μM (second RSL3 column)

| EC50 [2] | Compound | inhibition (%) [1, 6] | inhibition (%) [1, 7] | inhibition (%) [1, 8] | inhibition (%) [1, 9] | inhibition (%) [1, 10] | inhibition (%) [1, 11] | inhibition (%) [3, 12] | inhibition (%) [3, 13] | inhibition (%) [3, 14] | inhibition (%) [3, 15] | inhibition (%) [3, 16] | inhibition (%) [3, 17] | inhibition (%) [4, 18] | inhibition (%) [4, 19] | inhibition (%) [4, 20] | inhibition (%) [4, 21] | inhibition (%) [4, 22] | inhibition (%) [4, 23] | inhibition (%) [5, 24] | other results |
| --- | --- | --- | --- | --- | --- | --- | --- | --- | --- | --- | --- | --- | --- | --- | --- | --- | --- | --- | --- | --- | --- |
| ≤ 300 nM | COCCc1cc(NC2CCOCC2)c2[nH]c(-c3ccccc3)cc2c1 [Example 41, 5-(2-methoxyethyl)-2-phenyl-N-(tetrahydro-2H-pyran-4-yl)-1H-indol-7-amine] | 100% | 100% | 99% | 98% | 100% | 100% | 0% | 0% | 99% | 98% | 100% | 100% | 100% | 100% | 76% | 100% | 100% | 100% | 100% | inhibition (%) [5, 25]: 100%; inhibition (%) [5, 26]: 100%; inhibition (%) [5, 27]: 100% |
| > 1000 nM | CCOCc1cc(NC2CCOCC2)c2[nH]c(-c3ccccc3)c(-c3ncc[nH]3)c2c1 [Example 46, 5-(ethoxymethyl)-3-(1H-imidazol-2-yl)-2-phenyl-N-(tetrahydro-2H-pyran-4-yl)-1H-indole-7-amine] | 4% | 100% | 4% | 94% | 15% | 9% | 102% | 99% | 0% | 96% | 0% | 100% | 0% | 38% | 4% | 6% | 0% | 100% | 3% | inhibition (%) [5, 25]: 64%; inhibition (%) [5, 26]: 5%; inhibition (%) [5, 27]: 43% |
